This note sets out measurements from ChEMBL document CHEMBL1155846, “Selectivity determinants of inhibitor binding to human 20alpha-hydroxysteroid dehydrogenase: crystal structure of the enzyme in ternary complex with coenzyme and the potent inhibitor 3,5-dichlorosalicylic acid” (J Med Chem, 2008).

What is called Ki is the equilibrium dissociation constant of an inhibitor or competing ligand from its target.

The target of assay [1] is T1, Aldo-keto reductase family 1 member C4 (Homo sapiens, UniProt P17516).
T1 sequence (P17516 whole entry): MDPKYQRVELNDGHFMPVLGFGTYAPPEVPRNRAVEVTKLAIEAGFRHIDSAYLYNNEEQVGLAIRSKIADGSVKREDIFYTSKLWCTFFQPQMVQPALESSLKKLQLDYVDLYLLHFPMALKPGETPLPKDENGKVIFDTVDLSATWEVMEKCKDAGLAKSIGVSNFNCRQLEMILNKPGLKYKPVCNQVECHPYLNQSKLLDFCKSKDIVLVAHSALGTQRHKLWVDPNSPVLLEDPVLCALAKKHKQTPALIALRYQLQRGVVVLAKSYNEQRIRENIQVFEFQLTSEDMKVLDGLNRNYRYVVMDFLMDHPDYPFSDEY
Nature of the assay: Inhibition of human recombinant AKR1C4.

For assay [2], the target named is T2, Aldo-keto reductase family 1 member C3 (Homo sapiens, UniProt P42330).
T2 sequence (P42330 whole entry): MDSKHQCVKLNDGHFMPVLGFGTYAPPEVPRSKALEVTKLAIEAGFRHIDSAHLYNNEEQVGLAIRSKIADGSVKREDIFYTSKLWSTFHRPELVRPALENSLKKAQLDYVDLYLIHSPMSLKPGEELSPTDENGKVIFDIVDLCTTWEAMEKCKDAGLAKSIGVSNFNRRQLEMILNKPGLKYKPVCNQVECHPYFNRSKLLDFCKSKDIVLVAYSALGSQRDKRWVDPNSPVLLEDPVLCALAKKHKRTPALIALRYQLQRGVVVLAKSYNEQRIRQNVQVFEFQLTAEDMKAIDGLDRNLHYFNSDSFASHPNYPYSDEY
Nature of the assay: Inhibition of human recombinant AKR1C3.

SMILES strings stand for the structures.

Take `O=C(O)c1cc(Cl)cc(Cl)c1O`: the Ki in assay [1] is 24 µM; in assay [2] it was 94 µM.
